The values below come from patent publication US12492188B2, “1H-benzo[D]imidazole derivatives as TLR9 inhibitors for the treatment of fibrosis” (BRISTOL-MYERS SQUIBB COMPANY, priority 2020, dated 2025).

By IC50 is commonly meant the concentration that gives 50% inhibition.

The target in test [1] is T1, human TLR9 (Homo sapiens, UniProt Q9NR96).
T1 construct: host or cells: HEK-Blue cells (HEK293-derived reporter line)
T1 sequence (Q9NR96 26-1032): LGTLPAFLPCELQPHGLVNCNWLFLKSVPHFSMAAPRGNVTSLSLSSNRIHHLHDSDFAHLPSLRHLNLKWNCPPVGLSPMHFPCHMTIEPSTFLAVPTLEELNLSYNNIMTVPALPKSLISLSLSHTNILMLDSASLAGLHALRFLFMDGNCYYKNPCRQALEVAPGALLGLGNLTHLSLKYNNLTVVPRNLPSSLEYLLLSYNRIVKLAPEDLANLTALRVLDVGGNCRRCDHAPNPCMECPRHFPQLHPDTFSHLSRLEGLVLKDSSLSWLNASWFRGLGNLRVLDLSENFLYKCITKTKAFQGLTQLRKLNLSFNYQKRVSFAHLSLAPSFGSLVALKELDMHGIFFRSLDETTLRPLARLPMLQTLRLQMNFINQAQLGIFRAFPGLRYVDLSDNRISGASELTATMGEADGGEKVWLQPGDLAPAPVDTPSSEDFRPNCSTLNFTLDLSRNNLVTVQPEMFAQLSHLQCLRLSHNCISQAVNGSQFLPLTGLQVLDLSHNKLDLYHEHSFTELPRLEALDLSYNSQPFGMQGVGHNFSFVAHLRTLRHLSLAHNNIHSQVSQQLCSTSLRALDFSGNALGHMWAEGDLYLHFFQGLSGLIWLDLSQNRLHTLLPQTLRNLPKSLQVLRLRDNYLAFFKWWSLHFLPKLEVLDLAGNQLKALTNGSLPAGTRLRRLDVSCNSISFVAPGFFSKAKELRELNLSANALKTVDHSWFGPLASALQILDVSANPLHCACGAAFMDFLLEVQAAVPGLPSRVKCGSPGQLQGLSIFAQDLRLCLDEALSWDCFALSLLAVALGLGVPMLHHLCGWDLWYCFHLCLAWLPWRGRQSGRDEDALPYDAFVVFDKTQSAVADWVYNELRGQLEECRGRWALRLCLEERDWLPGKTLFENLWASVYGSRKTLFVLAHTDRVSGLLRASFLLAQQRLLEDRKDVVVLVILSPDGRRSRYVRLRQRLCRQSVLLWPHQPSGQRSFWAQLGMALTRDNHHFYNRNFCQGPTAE
The test can be described thus: TLR9 inhibition reporter assay (HEK-Blue cells, secreted embryonic alkaline phosphatase reporter). The class given is cell-based. In short, it runs like this: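 Steps: seed receptor-specific HEK-Blue cells; add compound, 0.05 nM–50 μM; wait 30 min at room temperature; add final gardiquimod 7.5 μM, R848 15.9 μM or ODN2006 5 nM for TLR7, TLR8 or TLR9; incubate 22 h at 37 °C; detect NF-κB/AP-1-driven SEAP.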
(In general: A reporter such as luciferase makes a cellular process visible.)

Test [2] addresses T2, human TLR7 (Homo sapiens, UniProt Q9NYK1).
T2 construct: host or cells: HEK-Blue cells (HEK293-derived reporter line)
T2 sequence (Q9NYK1 27-1049): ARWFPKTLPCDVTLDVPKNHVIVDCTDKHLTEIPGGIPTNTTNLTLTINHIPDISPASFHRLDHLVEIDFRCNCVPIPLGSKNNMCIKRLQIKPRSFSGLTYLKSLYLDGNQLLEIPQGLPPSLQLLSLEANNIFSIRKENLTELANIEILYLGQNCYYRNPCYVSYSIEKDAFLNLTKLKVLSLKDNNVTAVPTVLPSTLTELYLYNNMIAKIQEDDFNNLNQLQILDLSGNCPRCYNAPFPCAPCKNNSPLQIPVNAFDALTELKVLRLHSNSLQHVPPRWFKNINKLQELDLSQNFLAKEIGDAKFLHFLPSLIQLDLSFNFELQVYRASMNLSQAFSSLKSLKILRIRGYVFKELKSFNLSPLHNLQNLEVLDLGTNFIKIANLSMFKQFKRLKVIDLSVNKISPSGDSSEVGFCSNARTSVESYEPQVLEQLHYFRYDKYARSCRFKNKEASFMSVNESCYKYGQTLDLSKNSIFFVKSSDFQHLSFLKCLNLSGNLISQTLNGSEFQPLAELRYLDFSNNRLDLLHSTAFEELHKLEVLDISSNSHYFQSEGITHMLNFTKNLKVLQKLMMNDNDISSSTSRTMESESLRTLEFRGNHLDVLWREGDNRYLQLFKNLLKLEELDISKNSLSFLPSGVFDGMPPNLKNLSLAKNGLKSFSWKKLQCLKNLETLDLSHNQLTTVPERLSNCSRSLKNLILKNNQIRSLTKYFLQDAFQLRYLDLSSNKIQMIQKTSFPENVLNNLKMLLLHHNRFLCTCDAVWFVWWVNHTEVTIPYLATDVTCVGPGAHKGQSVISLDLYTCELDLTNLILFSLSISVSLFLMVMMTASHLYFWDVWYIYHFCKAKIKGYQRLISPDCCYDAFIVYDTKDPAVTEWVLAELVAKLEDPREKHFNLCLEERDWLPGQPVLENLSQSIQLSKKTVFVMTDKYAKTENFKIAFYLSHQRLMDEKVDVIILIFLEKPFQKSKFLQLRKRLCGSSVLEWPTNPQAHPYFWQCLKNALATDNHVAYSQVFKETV
The experiment in a line: TLR7 inhibition reporter assay (HEK-Blue cells, secreted embryonic alkaline phosphatase reporter). It counts as cell-based. The following applies: HEK-Blue cells overexpressing human TLR7, stimulated with gardiquimod 7.5 μM; read-out: TLR 7 IC50. How it is done:
TLR7/8/9 Inhibition Reporter Assays
HEK-Blue™-cells (Invivogen) overexpressing human TLR7, TLR8 or TLR9 receptors were used for screening inhibitors of these receptors using an inducible SLAP (secreted embryonic alkaline phosphatase) reporter gene under the control of the […] minimal promoter fused to five NF-κB and AP-1-binding sites. Briefly, cells are seeded into Greiner 384 well plates (15000 cells per well for TLR7, 20,000 for TLR8 and 25,000 for TLR9) and then treated with test compounds in DMSO to yield a final dose response concentration range of 0.05 nM-50 μM. After a 30 minute compound pre-treatment at room temperature, the cells are then stimulated with a TLR7 ligand (gardiquimod at a final concentration of 7.5 μM), TLR8 ligand (R848 at a final concentration of 15.9 μM) or TLR9 ligand (ODN2006 at a final concentration of 5 nM) to activate NF-κB and AP-1 which induce the production of SLAP. After a 22 hour incubation at 37° C., […], SLAP levels are determined with the addition of HEK-Blue™ Detection reagent (Invivogen), a cell culture medium that allows for detection of SLAP, according to manufacturer's specifications. The percent inhibition is determined as the […] in the HEK-Blue signal present in wells treated with agonist plus DMSO alone compared to wells treated with a known inhibitor.

The mark [3] stands for this setting: HEK-Blue cells overexpressing human TLR9, stimulated with ODN2006 5 nM, 22 hour incubation, reporter readout.
[4] abbreviates: HEK-Blue cells overexpressing human TLR9, stimulated with ODN2006 5 nM, read-out: TLR 9 IC50.

Where two headings read alike, the source gives them in different places.

`CC(C)N1CCC(N2CCC(c3cc(F)c4nc(-c5ccc(S(C)(=O)=O)cc5)n(C5CC5)c4c3)CC2)CC1` [Example 115, 1-cyclopropyl-4-fluoro-6-(1′-isopropyl-[1,4′-bipiperidin]-4-yl)-2-(4-(methylsulfonyl)phenyl)-1H-benzo[d]imidazole]: the IC50 in test [1] (setting [3]) turned out to be 0.024 µM; in test [2] it was 1.9 µM.

For `Cn1c(-c2ccc(S(C)(=O)=O)cc2)nc2ccc(C3CCN(C4CCN(C5COC5)CC4)CC3)c(F)c21` [Example 263, 7-fluoro-1-methyl-2-(4-(methylsulfonyl)phenyl)-6-(1′-(oxetan-3-yl)-[1,4′-bipiperidin]-4-yl)-1H-benzo[d]imidazole], the IC50 amounted to 1.8 µM in test [1], 1.77 µM in test [1] (setting [4]) and 11.9 µM in test [2].

Regarding `Cn1c(-c2ccc(S(C)(=O)=O)cc2)nc2ccc(C3CCN(C4CCCN(C5CCOCC5)CC4)CC3)c(F)c21` (stereo not shown) [Example 317, 7-fluoro-1-methyl-2-(4-(methylsulfonyl)phenyl)-6-(1-(1-(tetrahydro-2H-pyran-4-yl)azepan-4-yl)piperidin-4-yl)-1H-benzo[d]imidazole], the IC50 in test [1] (setting [4]) is 0.018 µM; in test [1] (HEK-Blue human TLR9 reporter cells), 0.018 µM; in test [2], greater than 50 µM.

For `Cc1cc(-c2ccc(C3CCN(C)CC3)cc2)cc2c1nc(-c1ccc(S(C)(=O)=O)cc1)n2C` [Example 363, 1,4-dimethyl-6-(4-(1-methylpiperidin-4-yl)phenyl)-2-(4-(methylsulfonyl)phenyl)-1H-benzo[d]imidazole], the IC50 in test [1] (setting [3]) turned out to be 0.14 µM; in test [1] (setting [4]) it was 0.1 µM; in test [2], 4.3 µM.

Turning to `Cc1cc(-c2ccc(CN3CCC(N4CCCC4)CC3)cc2)cc2c1nc(-c1ccc(S(C)(=O)=O)cc1)n2C` [Example 369, 1,4-dimethyl-2-(4-(methylsulfonyl)phenyl)-6-(4-((4-(pyrrolidin-1-yl)piperidin-1-yl)methyl)phenyl)-1H-benzo[d]imidazole], the half-maximal inhibitory concentration (IC50) in test [1] (setting [3]) stood at 0.12 µM; in test [1] (setting [4]) it was 0.121 µM; in test [2], 0.9 µM.

As for `Cc1cc(-c2ccc(CN3CCCC3)cc2)cc2c1nc(-c1ccc(S(C)(=O)=O)cc1)n2C` [Example 395, 1,4-dimethyl-2-(4-(methylsulfonyl)phenyl)-6-(4-(pyrrolidin-1-ylmethyl)phenyl)-1H-benzo[d]imidazole], the IC50 in test [1] (setting [3]) was 1.4 µM; in test [1] (setting [4]), 1.36 µM; in test [2], 11.2 µM.

`Cc1cc(-c2ccc(CN3C[C@@H]4CN(CC(C)C)C[C@@H]4C3)cc2)cc2c1nc(-c1ccc(S(C)(=O)=O)cc1)n2C` [Example 396, 6-(4-((cis-5-isobutylhexahydropyrrolo[3,4-c]pyrrol-2(1H)-yl)methyl)phenyl)-1,4-dimethyl-2-(4-(methylsulfonyl)phenyl)-1H-benzo[d]imidazole]: the values for the IC50 in test [1] (setting [3]), in test [1] (setting [4]) and in test [2] were 0.2 µM, 0.203 µM and 6.7 µM, respectively.

Take `Cc1cc(-c2ccc(CN3C[C@@H]4CN(C(C)C)C[C@@H]4C3)cc2)cc2c1nc(-c1ccc(S(C)(=O)=O)cc1)n2C` [Example 397, 6-(4-((cis-5-isopropylhexahydropyrrolo[3,4-c]pyrrol-2(1H)-yl)methyl)phenyl)-1,4-dimethyl-2-(4-(methylsulfonyl)phenyl)-1H-benzo[d]imidazole]: the figures for the concentration for half-maximal inhibition (IC50) in test [1] (setting [3]), in test [1] (setting [4]) and in test [2] were 0.086 µM, 0.086 µM and 2.6 µM, respectively.

With `Cc1cc(-c2ccc(CN3C[C@H]4CN(C)C[C@H]4C3)cc2)cc2c1nc(-c1ccc(S(C)(=O)=O)cc1)n2C` [Example 398, 1,4-dimethyl-6-(4-((cis-5-methylhexahydropyrrolo[3,4-c]pyrrol-2(1H)-yl)methyl)phenyl)-2-(4-(methylsulfonyl)phenyl)-1H-benzo[d]imidazole], the half-maximal inhibitory concentration (IC50) in test [1] (setting [3]) is 0.13 µM; in test [1] (setting [4]), 0.128 µM; in test [2], 1.7 µM.

Take `Cc1cc(-c2ccc(OC3CCN(CC(C)C)CC3)cc2)cc2c1nc(-c1ccc(S(C)(=O)=O)cc1)n2C` [Example 417, 6-(4-((1-isobutylpiperidin-4-yl)oxy)phenyl)-1,4-dimethyl-2-(4-(methylsulfonyl)phenyl)-1H-benzo[d]imidazole]: the IC50 in test [1] (setting [3]) and in test [1] (setting [4]) was 0.8 µM throughout.

Turning to `Cc1cc(CN2CCC(c3cc(C)c4nc(-c5ccc(S(C)(=O)=O)cc5)n(C)c4c3)CC2)cc(C)n1` [Example 418, 6-(1-((2,6-dimethylpyridin-4-yl)methyl)piperidin-4-yl)-1,4-dimethyl-2-(4-(methylsulfonyl)phenyl)-1H-benzo[d]imidazole], the IC50 came out at 2.5 µM in test [1] (setting [3]) and 2.51 µM in test [1] (setting [4]).

In test [1] (setting [3]), `CN(C)c1ccc(-c2nc3ccc(-c4ccc(CN5CCC(N(C)C)CC5)cc4)cc3n2C)cc1` [Example 425, 1-(4-(2-(4-(dimethylamino)phenyl)-1-methyl-1H-benzo[d]imidazol-6-yl)benzyl)-N,N-dimethylpiperidin-4-amine] returned an IC50 of 0.061 µM.
